Experimental data from ChEMBL document CHEMBL4393711, “Discovery and synthesis of novel indole derivatives-containing 3-methylenedihydrofuran-2(3H)-one as irreversible LSD1 inhibitors” (Eur J Med Chem, 2019).

What was measured:
[1] = target: T1, Lysine-specific histone demethylase 1A (Homo sapiens, UniProt O60341); assay: Inhibition of recombinant LSD1 (unknown origin) (catalytic domain 157 to 852 residues) expressed in Escherichia coli BL21 using H3K4me1 as substrate incubated for 1 hr by horse-radish peroxidase/amplex red-based fluorescence method
THP-1 [2] = assay: Induction of cellular morphology change in human THP1 cells assessed as blurred cell membrane boundaries with chromatin shrinkage incubated for 3 days by hematoxylin and eosin staining based microscopic analysis; type: functional
[3] = target: T1, Lysine-specific histone demethylase 1A
Description: Binding affinity to recombinant LSD1 (unknown origin) assessed as change in melting temperature at 100 uM by SYPRO orange dye based thermal shift assay

[4] = target: T1, Lysine-specific histone demethylase 1A; remark: listed apart in the source
THP-1 [5] = assay: Inhibition of colony formation in human THP1 cells incubated for 2 weeks by microscopic analysis; type: functional, cell-based
[6] = target: T1, Lysine-specific histone demethylase 1A; remark: listed apart in the source
Description: Binding affinity to recombinant LSD1 (unknown origin) assessed as change in melting temperature at 50 uM by SYPRO orange dye based thermal shift assay

[7] = target: T1, Lysine-specific histone demethylase 1A; remark: listed apart in the source
Description: Binding affinity to LSD1 (unknown origin) assessed as dissociation rate constant by SPR assay

[8] = target: T1, Lysine-specific histone demethylase 1A; remark: listed apart in the source
Description: Binding affinity to LSD1 (unknown origin) assessed as association constant by SPR assay

THP-1 [9] = assay: Antiproliferative activity against human THP1 cells assessed as reduction in cell viability incubated for 5 days by MTT assay; details: THP-1, 120 h

| SMILES | IC50 [1] [µM] | further results |
| --- | --- | --- |
| C=C1C(=O)OCC1C(O)c1cn(Cc2ccc(Cl)cc2)c2ccc(F)cc12 (stereo unspecified) | > 10 |  |
| O=C(c1ccc(F)cc1)c1cn(Cc2ccc(F)cc2)c2ccc(Cl)cc12 | > 10 |  |
| C=C1C(=O)OCC1C(O)c1cn(C(=O)C2CC2)c2ccc(Cl)cc12 (stereo unspecified) | > 10 |  |
| Cc1ccc(C(=O)c2cn(Cc3ccc(F)cc3)c3ccc(Cl)cc23)cc1 | > 10 |  |
| C=C1C(=O)OCC1C(O)c1cn(Cc2ccc(Cl)cc2)c2cccc(OC)c12 (stereo unspecified) | > 10 |  |
| C=C1C(=O)OCC1C(O)c1cn(C(=O)c2c(C)noc2C)c2ccc(Cl)cc12 (stereo unspecified) | > 10 |  |
| C=C1C(=O)OCC1C(O)c1cn(Cc2ccc(Cl)cc2)c2cccc(Cl)c12 (stereo unspecified) | > 10 |  |
| O=C(c1cn(Cc2ccc(F)cc2)c2ccc(Cl)cc12)C1CC1 | > 10 |  |
| C=C1C(=O)OCC1C(O)c1cn(Cc2ccc(Cl)cc2)c2c(Cl)cccc12 (stereo unspecified) | > 10 |  |
| C=C1C(=O)OCC1C(O)c1cn(Cc2ccc(Cl)cc2)c2c(OC)cccc12 (stereo unspecified) | > 10 |  |
| C=C1C(=O)OCC1C(O)c1cn(Cc2ccc(Cl)cc2)c2cc(OC)ccc12 (stereo unspecified) | > 10 |  |
| O=C(/C=C/c1ccco1)c1cn(Cc2ccc(F)cc2)c2ccc(Cl)cc12 | > 10 |  |
| C=C1C(=O)OCC1C(O)c1cn(Cc2ccc(Cl)cc2)c2ccc(Cl)cc12 (stereo unspecified) | > 10 |  |
| C=C1C(=O)OCC1C(O)c1cn(Cc2cncc(C)c2)c2ccc(Cl)cc12 (stereo unspecified) | > 10 |  |
| C=C1C(=O)OCC1C(O)c1cn(C(=O)/C=C/c2ccccc2)c2ccc(Cl)cc12 (stereo unspecified) | > 10 |  |
| C=C1C(=O)OCC1C(O)c1cn(Cc2ccc(Cl)cc2)c2cc(Cl)ccc12 (stereo unspecified) | > 10 |  |
| C=C1C(=O)OCC1C(O)c1cn(CC2CC2)c2ccc(Cl)cc12 (stereo unspecified) | > 10 |  |
| C=C1C(=O)OCC1C(O)c1cn(Cc2ccc(Cl)cc2)c2ccc(OC)cc12 (stereo unspecified) | > 10 |  |
| C=C1C(=O)OCC1C(O)c1cn(Cc2ccc(Cl)cn2)c2ccc(Cl)cc12 (stereo unspecified) | > 10 |  |
| O=C(/C=C/c1cccs1)c1cn(Cc2ccc(F)cc2)c2ccc(Cl)cc12 | > 10 |  |
| O/N=C(\c1ccccc1)c1cn(Cc2ccc(F)cc2)c2ccc(Cl)cc12 | > 10 |  |
| C=C1C(=O)OCC1C(O)c1cn(C(=O)c2ccco2)c2ccc(Cl)cc12 (stereo unspecified) | > 10 |  |

| SMILES | IC50 [1] [µM] | further results |
| --- | --- | --- |
| OC(c1ccccc1)c1cn(Cc2ccc(F)cc2)c2ccc(Cl)cc12 (stereo unspecified) | > 10 |  |
| C=C1C(=O)OCC1C(O)c1cn(C(=O)c2sccc2C)c2ccc(Cl)cc12 (stereo unspecified) | > 10 |  |
| C=C1C(=O)OCC1C(O)c1cn(Cc2ccncc2)c2ccc(Cl)cc12 (stereo unspecified) | > 10 |  |
| C=C1C(=O)OCC1C(O)c1cn(Cc2cnc(Cl)s2)c2ccc(Cl)cc12 (stereo unspecified) | > 10 |  |
| c1ccc([C@@H]2C[C@H]2NC2CCNCC2)cc1 |  | Activity (THP-1 [2]): Dose-dependent effect; ΔTm [3]: 4.28 °C; ΔTm [4]: 8.37 °C; inhibition (THP-1 [5]): Dose-dependent effect; ΔTm [6]: 2.21 °C; Kdiss [7]: 1.11 ×10⁻¹ /s; Ka [8]: 2.6 ×10³ /M.s |
| C=C1C(=O)OCC1C(O)c1cn(Cc2c(C)noc2C)c2ccc(Cl)cc12 (stereo unspecified) | > 10 |  |
| CC(=O)c1cn(Cc2ccc(F)cc2)c2ccc(Cl)cc12 | > 10 |  |
| CC1=CCSC1C(=O)c1cn(Cc2ccc(F)cc2)c2ccc(Cl)cc12 (stereo unspecified) | > 10 |  |
| O=C(c1ccncc1)c1cn(Cc2ccc(F)cc2)c2ccc(Cl)cc12 | > 10 |  |
| C=C1C(=O)OCC1C(O)c1cn(Cc2csc(N)n2)c2ccc(Cl)cc12 (stereo unspecified) | > 10 |  |
| C=C1C(=O)OCC1C(O)c1cn(Cc2ccc(Cl)s2)c2ccc(Cl)cc12 (stereo unspecified) | > 10 |  |
| C=C1C(=O)OCC1C(O)c1cn(Cc2ccc(F)cc2)c2ccc(Cl)cc12 (stereo unspecified) |  | Activity (THP-1 [2]): Dose-dependent effect; inhibition (THP-1 [5]): Dose-dependent effect; IC50 (THP-1 [9]): 1.2 µM |
| O=C(c1ccccc1)c1cn(Cc2ccc(F)cc2)c2ccc(Cl)cc12 | > 10 |  |
| O=C(c1ccco1)c1cn(Cc2ccc(F)cc2)c2ccc(Cl)cc12 | > 10 |  |
| C=C1C(=O)OCC1C(O)c1cn(C(=O)c2cccnc2Cl)c2ccc(Cl)cc12 (stereo unspecified) | > 10 |  |
| O=C(c1ccnc(Cl)c1)c1cn(Cc2ccc(F)cc2)c2ccc(Cl)cc12 | > 10 |  |
| C=C1C(=O)OCC1C(O)c1cn(Cc2nc3ccccc3s2)c2ccc(Cl)cc12 (stereo unspecified) | > 10 |  |
| C=C1C(=O)OCC1C(O)c1cn(Cc2nc3ccccc3o2)c2ccc(Cl)cc12 (stereo unspecified) | > 10 |  |
| C=C1C(=O)OCC1C(O)c1cn(Cc2nc(C)c3ccccc3n2)c2ccc(Cl)cc12 (stereo unspecified) | > 10 |  |
| C=C1C(=O)OCC1C(O)c1cn(Cc2ncccn2)c2ccc(Cl)cc12 (stereo unspecified) | > 10 |  |
| C=C1C(=O)OCC1C(O)c1cn(Cc2nc3ccccc3[nH]2)c2ccc(Cl)cc12 (stereo unspecified) | > 10 |  |
